Measurements from US6069254A, “Carboxamide derivatives of piperidine for the treatment of thrombosis disorders” (Ortho Pharmaceutical Corp., priority 1997, dated 2000).
Counter-ions that a name gives are not always drawn. Like-named read-outs stand apart in the source and are kept apart here.

Columns and labels:
GPIIb/IIIa [1] = molecular target: T1, GPIIb/IIIa (Homo sapiens, UniProt P05106+P08514); experiment: In Vitro Solid Phase Purified Glycoprotein IIb/IIIa Binding Assay (fibrinogen binding)
Protocol: In Vitro Solid Phase Purified Glycoprotein IIB/IIIA Binding Assay
The plate is covered and incubated overnight at 4° C. The GPIIb/IIIa solution is discarded and 150 μl of 5% BSA is added and incubated at RT for 1-3 h. The plate is washed extensively with modified Tyrodes buffer. Biotinylated fibrinogen (25 μl/well) at 2×final concentration is added to the wells that contain the test compounds (25 μl/well). The plate is covered and incubated at RT for 2-4 h. Twenty minutes prior to incubation completion, one drop of Reagent A (Vecta Stain ABC Horse Radish Peroxidase kit, Vector Laboratories, Inc.) and one drop Reagent B are added with mixing to 5 mL modified Tyrodes buffer mix and let stand. The ligand solution is discarded and the plate washed (5×200 μl/well) with modified Tyrodes buffer. Vecta Stain HRP-Biotin-Avidin reagent (50 μl/well, as prepared above) is added and incubated at RT for 15 min. The Vecta Stain solution is discarded and the wells washed ([…]) with modified Tyrodes buffer. Developing buffer (10 mL of 50 mM citrate/phosphate buffer @ pH 5.3, 6 mg Q-phenylenediamine, 6 μl 30% H2 O2; 50 μl/well) is added and incubated at RT for 3-5 min, and then 2N H2 SO4 (50 μl/well) is added. The absorbance is read at 490 nm.

[2] = tested on: platelets (thrombin-induced platelet aggregation); settings: L. Alig, J. Med. Chem. 1992, 35, 4393; read-out: IC50 against in vitro thrombin-induced platelet aggregation; cited from earlier work
[3] = tested on: gel-filtered platelets (thrombin-induced aggregation); experiment: In Vitro Inhibition of Thrombin-Induced Gel-Filtered Platelet Aggregation Assay; type: cell-based; settings: Homo sapiens; for inhibition at 50 µM: read-out: Platelet Aggregation % Inh. (50 μM); for IC50: read-out: Platelet Aggregation IC50
Protocol: In Vitro Inhibition of Thrombin-Induced Gel-Filtered Platelet Aggregation Assay
The percentage of platelet aggregation is calculated as an increase in light transmission of compound-treated platelet concentrate vs. control-treated platelet concentrate. Human blood is obtained from drug free, normal donors into tubes containing 0.13M sodium citrate. Platelet rich plasma (PRP) is collected by centrifugation of whole blood at 200×g for 10 min at 25° C. The PRP (5 mL) is gel filtered through Sepharose 2B (bed volume 50 mL), and the platelet count is adjusted to 2×10^7 platelets per sample. The following constituents are added to a siliconized cuvette: concentrated platelet filtrate and Tyrode's buffer (0.14M NaCl, 0.0027M KCl, 0.012M NaHCO3,0.76 mM Na2 HPO4, 0.0055M glucose, 2 mg/mL BSA and 5.0 mM HEPES @ pH 7.4) in an amount equal to 350 μl, 50 μl of 20 mM calcium and 50 μl of the test compound. Aggregation is monitored in a BIODATA aggregometer for the 3 min following the addition of agonist (thrombin 50 μl of 1 unit/mL).

GPIIb/IIIa [4] = molecular target: T1, GPIIb/IIIa; settings: background statement; cited from earlier work
thrombus formation = experiment: canine arteriovenous shunt model of thrombosis; type: in vivo; settings: iv infusion
[5] = tested on: collagen or ADP-induced ex vivo platelet aggregation; experiment: Ex Vivo Dog Study: ex vivo platelet aggregation; type: in vivo
Protocol: Adult mongrel dogs (8-13 kg) were anesthetized with sodium pentobarbital ([…], i.v.) and artificially respired. Arterial blood pressure and heart rate were measured using a Millar catheter-tip pressure transducer inserted in a femoral artery Another Millar transducer was placed in the left ventricle (LV) via a carotid artery to measure LV end diastolic pressure and indices of myocardial contractility. A lead electrocardiogram was recorded from limb electrodes. Catheters were placed in a femoral artery and vein to sample blood and infuse drugs, respectively. Responses were continuously monitored using a Modular Instruments data aquisition system.
Separate blood samples (1.5 ml) were withdrawn in EDTA to determine hematocrit and cell counts (platelets, RBC's and white cells). Template bleeding times were obtained from the buccal surface using a symplate incision devise and Whatman filter paper.
Aggregation of PRP was performed using a BioData aggregometer. Aggregation of whole blood used a Chronolog impedance aggregometer. PT and APTT were determined on either a BioData or ACL 3000+ coagulation analyser. Cells were counted with a Sysmex K-1000.
Compounds were solubilized in a small volume of dimethylformamide (DMF) and diluted with saline to a final concentration of 10% DMF. Compounds were administered by the intravenous route with a Harvard infusion pump. […] Data were obtained after each dose and in 30 min intervals following the end of drug administration. Oral doses were administered as aqueous solutions via syringe.

[6] = isolated GPIIb/IIIa, biotinylated fibrinogen, read-out: Fibrinogen Binding IC50
[7] = 50 μM, thrombin-induced aggregation of gel-filtered platelets
[8] = thrombin-induced aggregation of gel-filtered platelets

Compound	IC50 (GPIIb/IIIa [1]; [6]) [nM]	inhibition at 50 µM [3, 7] [%]	other results
O=C(O)C[C@H](NC(=O)C1CCCN(CCCC2CCNCC2)C1)c1ccc2c(c1)OCO2 (stereo partly drawn) [Compound 20, N-3-(4-Piperidinepropyl)-nipecotyl-[(S)-3-amino-3-(3,4-methylenedioxyphenyl)]propionic acid.2TFA]	0.7	–	–
O=C(O)C(O)CNC(=O)[C@@H]1CCCN(C(=O)CCC2CCNCC2)C1 (single isomer, unassigned) [Compound 11, N-3-(4-Piperidinepropionyl)-R-(-)-nipecotyl-(3-amino-2-hydroxy) propionic acid.TFA]	4	–	–
O=C(N[C@@H](CNC(=O)[C@@H]1CCCN(C(=O)CCC2CCNCC2)C1)C(=O)O)OCc1ccccc1 [Compound 23, N-3-(4-Piperidinepropionyl)-R-(-)nipecotyl-[(S)-2-benzyloxycarbonylamino-3-amino]propionic acid.HCl]	0.3	–	–
CN(CC(=O)c1ccc(OCC(=O)O)c(OCC(=O)O)c1)C(=O)c1ccc(C(=N)N)cc1 [Ro-438857]	–	–	IC50 [2]: 94 nM
NCCCCCC(=O)N1CCCC(C(=O)NC(CC(=O)O)c2cccnc2)C1 (stereo not drawn) [Compound 10, N-(6-Aminocaproyl)-nipecotyl-3-amino-3-(3-pyridyl)propionic acid.3TFA]	–	85	IC50 (GPIIb/IIIa [1]): 19 nM; IC50 [3, 8]: 1600 nM
COc1cc(NC(=O)N[C@@H](CNC(=O)[C@@H]2CCCN(C(=O)CCC3CCNCC3)C2)C(=O)O)cc(OC)c1 [Compound 26, N-3-(4-Piperidinepropionyl)-R-(-)nipecotyl-[(S)-2-(3,5-dimethoxyanilino)carbonylamino-3-amino]propionic acid.HCl]	0.3	–	–
N=CN1CCC(CCC(=O)N2CCC[C@@H](C(=O)N[C@@H](CC(=O)O)c3cccnc3)C2)CC1 [Compound 33, N-3-(4-Formamidinopiperidinepropionyl)-R-(-)nipecotyl-[(S)-3-amino-3-(3-pyridyl)]propionic acid.2HCl]	0.7	100	IC50 [3, 8]: 300 nM
HHLGGAKQAGDV [γ-chain peptide region of fibrinogen, γ400-411]	–	–	inhibition of fibrinogen binding to GPIIb/IIIa (GPIIb/IIIa [4]): shown to inhibit fibrinogen binding to GPIIb/IIIa
O=C(O)C[C@H](NC(=O)[C@@H]1CCCN(C(=O)CCC2CCNCC2)C1)c1cncc(Br)c1 [Compound 32, N-3-(4-Piperidinepropionyl)-R-(-)nipecotyl-[(S)-3-amino-3-(5-bromo-3-pyridyl)]propionic acid.2HCl]	0.4	–	–
O=C(O)C[C@H](NC(=O)[C@@H]1CCCN(C(=O)CCC2CCNCC2)C1)c1cnc2ccccc2c1 [Compound 18, N-3-(4-Piperidinepropionyl)-R-(-)-nipecotyl-[(S)-3-amino-3-(3-quinolinyl)]propionic acid.2HCl]	0.2	100	efficacy in canine arteriovenous shunt model of thrombosis (thrombus formation): have shown efficacy in a canine arteriovenous shunt model of thrombosis in a dose-dependent fashion
COc1cccc(NC(=O)N[C@@H](CNC(=O)[C@@H]2CCCN(C(=O)CCC3CCNCC3)C2)C(=O)O)c1 [Compound 22, N-3-(4-Piperidinepropionyl)-R-(-)nipecotyl-[(S)-2-(3-methoxyanilino)carbonylamino-3-amino]propionic acid]	0.7	–	–
O=C(NC[C@@H]1NC(=O)N(Cc2ccccc2)C1=O)[C@@H]1CCCN(C(=O)CCC2CCNCC2)C1 [Compound 29, N-3-(4-Piperidinepropionyl)-R-(-)nipecotyl-aminomethyl-5-(S)-(3-N-benzyl)imidazoline-2,4-dione.HCl]	68	100	–
O=C(NCCc1ccccc1)N[C@@H](CNC(=O)[C@@H]1CCCN(C(=O)CCC2CCNCC2)C1)C(=O)O [Compound 30, N-3-(4-Piperidinepropionyl)-R-(-)nipecotyl-[(S)-2-(2-phenethylamino)carbonylamino-3-amino]propionic acid.HCO2 H]	0.8	100	–
O=C(NC[C@H](NS(=O)(=O)Cc1ccccc1)C(=O)O)[C@@H]1CCCN(C(=O)CCC2CCNCC2)C1 [Compound 25, N-3-(4-Piperidinepropionyl)-R-(-)nipecotyl-[(S)-2-benzylsulfonylamino-3-amino]propionic acid.HCl]	0.3	–	IC50 [3, 8]: 7 nM
O=C(N[C@@H](CNC(=O)[C@@H]1CCCN(C(=O)CCC2CCNCC2)C1)C(=O)O)OCc1cccc(Cl)c1 [Compound 24, N-3-(4-Piperidinepropionyl)-R-(-)nipecotyl-[(S)-2-(3-chlorobenzyloxy)carbonylamino-3-amino]propionic acid.HCl]	–	100	–
O=C(O)C[C@H](NC(=O)[C@@H]1CCCN(C(=O)CCC2CCNCC2)C1)c1ccc2c(c1)OCO2 [Compound 16, N-3-(4-Piperidinepropionyl)-R-(-)-nipecotyl-[(S)-3-amino-3-(3,4-methylenedioxyphenyl)]propionic acid.HCl]	0.5	–	thrombus weight vs. vehicle control (thrombus formation; 10 μg/kg/min cumulative dose): 75%; thrombus weight vs. vehicle control (thrombus formation; 30 μg/kg/min cumulative dose): 37%; thrombus weight vs. vehicle control (thrombus formation; 100 μg/kg/min cumulative dose): 12%; efficacy in canine arteriovenous shunt model of thrombosis (thrombus formation): have shown efficacy in a canine arteriovenous shunt model of thrombosis in a dose-dependent fashion; inhibition at 50 µM (GPIIb/IIIa [1]; read-out: Fibrinogen Binding % Inh. (50 μM)): 100%; Duration of >50% inhibition of collagen or ADP induced ex vivo platelet aggregation ([5]; intravenous, 0.1 mpk): 60 min; Duration of >50% inhibition of collagen or ADP induced ex vivo platelet aggregation ([5]; oral, 1 mpk): 60 min; Duration of >50% inhibition of collagen or ADP induced ex vivo platelet aggregation ([5]; oral, 3 mpk): > 180 min; inhibition at 50 µM [3]: 94%; IC50 [3]: 28 nM
Cc1ccc([C@H](CC(=O)O)NC(=O)[C@@H]2CCCN(C(=O)CCC3CCNCC3)C2)cn1 [Compound 31, N-3-(4-Piperidinepropionyl)-R-(-)nipecotyl-[(S)-3-amino-3-(6-methyl-3-pyridyl)]propionic acid.2HCl]	0.3	100	–
O=C(O)C[C@H](NC(=O)[C@@H]1CCCN(C(=O)N2CCC(C3CCNCC3)CC2)C1)c1cccnc1 [Compound 27, N-[(4,4'-Bipiperidin-1-yl-)carbonyl]-R-(-)-nipecotyl-[(S)-3-amino-3-(3-pyridyl)]propionic acid.3HCl]	0.6	100	–
O=C(O)C[C@H](NC(=O)[C@@H]1CCCN(C(=O)CCC2CCNCC2)C1)c1cccnc1 [Compound 21, N-3-(4-Piperidinepropionyl)-R-(-)-nipecotyl-[(S)-3-amino-3-(3-pyridyl)]propionic acid.2TFA]	0.5	100	IC50 [3, 8]: 60 nM
O=C(Nc1ccc2ccccc2c1)N[C@@H](CNC(=O)[C@@H]1CCCN(C(=O)CCC2CCNCC2)C1)C(=O)O [Compound 28, N-3-(4-Piperidinepropionyl)-R-(-)nipecotyl-[(S)-2-(2-naphthylamino)carbonylamino-3-amino]propionic acid.HCl]	0.2	100	–
Arg-Gly-Asp [Arg-Gly-Asp (RGD)]	–	–	inhibition of fibrinogen binding to GPIIb/IIIa (GPIIb/IIIa [4]): shown to inhibit fibrinogen binding to GPIIb/IIIa
